# Assay results published in paper PMC6522510 (Nature Communications, 2019).
# Key:
# [1] = system: AML cell lines; conditions: human, 5 min, 1 µM
# [2] = system: MV4-11; test: cells; design: species or system AML cell lines (8); Secondary HTS, 10-point dose-response in triplicate, Cell Titer Glo viability, four-parameter fit EC50; conditions: Homo sapiens, MV4-11, 72 h, read-out: MV4-11
# [3] = system: ML-2-luciferase/YFP+ xenograft; test: In vivo efficacy, survival; design: species or system NSG mice; conditions: ML-2 xenograft, 50 mg kg−1 q4d, i.p.
# [4] = system: Mll PTD/wt:Flt3 ITD/ITD double knock-in primary transplant blasts (bone marrow, spleen); test: Accumulation in primary murine blasts; type: cell-based, mouse; conditions: blasts from bone marrow or spleen
# Procedure: Cells were washed twice with ice-cold PBS; cell pellets were solubilized in 400 µL 1 N NaOH and agitated (300 rpm) at room temperature for 2 h. Then samples were neutralized with […] 1 M HCl; a 25 µL aliquot of lysate was used to estimate protein concentration using a Pierce BCA protein assay kit (Thermo Scientific). Total radioactivity was measured by a Tri-Carb 4810TR liquid scintillation counter (Perkin-Elmer) after mixing the sample with 4 mL of Emulsifier Safe (Perkin Elmer); the results were normalized to total protein content as measured by a Pierce BCA protein assay kit. Three independent experiments were performed in triplicate.
# Bone marrow and splenocytes were isolated from mice transplanted with dKI AML and CG-V617 AMKL. Following red blood cells lysis, dKI AML leukemic blasts from vehicle treated mice were evaluated for accumulation of cytarabine and gemcitabine using the uptake assay described above.
# Supplementary Figure 5. Accumulation of cytarabine and gemcitabine .
# unlabeled and [3H]-cytarabine (Ara- C) or gemcitabine ( Gem ). Intracellular Ara- C, Gem ,
# scintillation counting and normalized to protein levels. Representative chromatogram for
# as disintegrations per minute (DPM) over complete run time. (c) Percentage of total
# independent experiments (N=9). (d) Accumulation was determined in cell lysate of bone
# double knock-in primary transplant recipient. […]
# [5] = system: MLLr primary AML blast samples; test: Ex vivo drug treatment of primary AML blasts on mesenchymal stromal cells; type: cell-based; conditions: Homo sapiens; primary blasts on MSC, 96 h, range over patient samples
structure (smiles),measurement,setting,value
"Nc1ccn([C@@H]2O[C@H](CO)[C@@H](O)C2(F)F)c(=O)n1 [Gemcitabine, gemcitabine]","intracellular uptake, gemcitabine relative to cytarabine",[1],1.2–3.6 fold
same,EC50,[2],2.1 nM
same,Median survival,[3],45 days
same,accumulation of total gemcitabine versus cytarabine,[4],6.0–6.7 fold
same,IC50,[5],267 to 4230 nM
